These results are taken from patent publication US5436261A, “Benzospiroalkene heterocyclic compounds” (Adir et Compagnie, priority 1993, dated 1995).

Assay [1] concerns dog femoral arteries. Put plainly: In vitro study on dog femoral arteries (contraction). It is filed as cell-based, dog (mongrel). To be noted: Canis lupus familiaris, dog femoral artery rings; for EC50: 37C, cumulative doses; for Emax: relative to maximum effect of 100 mM KCl, read-out: ARTERY Max. As for the experimental part:
(§1) In vitro study on dog femorai arteries and saphenous veins
(§2) The technique used is based on that described by FOWLER et al., (J. Pharmacol. Exp. Ther., 229, 712-718, 1984). Male or female mongrel dogs weighing approximately 15-25 kg were used as a source of organs. The animals are anesthetized with pentobarbital (30 mg/kg intravenously). The legs are incised and the vessels removed. They are placed in Krebs-Ringer fluid (118 mM NaCl; 25 mM NaHCO3; 10mM glucose; 4.7 mM KCl; 1.25 mM CaCl2; 1.19 mM MgSO4; 1.14 mM KH2 PO4) at room temperature and a stream of carbogen (95% O2, 5% CO2) is bubbled through. The fat is then carefully removed from these vessels, which are thereafter cut into rings 2 mm wide and mounted under a baseline tension of 4 g (femoral arteries) or 1 g (saphenous veins) in tanks thermostated at 37C containing Krebs-Ringer fluid with a stream of carbogen constantly bubbled through. A lower hook constitutes the fixed point, while the upper hook is connected to an isometric force gauge. The variations in tension are digitized, stored on disk and processed by a computer system. After mounting, the organs are left undisturbed for 90 minutes, rinsing being performed every 30 min. After readjustment of the baseline tension, a contraction is induced with a single dose of KCl (100 mM). After stabilization, washing and return to the baseline, a contraction is induced by a single dose of phenylephrine (submaximal concentrations) in order to regularize the following contractions. After washing and return to the baseline, an effect/concentration curve is plotted by adding cumulative doses of agonist (the spacing between the doses is on a semilogarithmic scale). This experiment enables the 50% effective concentration (EC50) to be calculated in the following manner: the tension values are first converted to percentages relative to the maximum effect produced by 100 mM KCl. This EC50 is determined by nonlinear regression by the SIMPLEX method (M. S. CACECI, Byte, 340-362, 1984), calculated according to the L. MICHAELIS and M. L. MENTEN model of the law of mass action (Blochem. Zeitschrift, 49, 333-369, 1913). E=(Emax*C^n)(EC^n +C^n) with E=effects; Emax=maximum effect; C=concentration; EC=EC50; n=HILL's number

Assay [2] has as its system dog saphenous veins. Put plainly: In vitro study on dog saphenous veins (contraction). The assay is classed as cell-based, dog (mongrel). As to conditions: Canis lupus familiaris, dog saphenous vein rings; for EC50: 37C, cumulative doses; for Emax: relative to maximum effect of 100 mM KCl, read-out: VEIN Max. As for the experimental part: as §1, §2
The subject of assay [3] is alpha2-adrenergic. Put plainly: In vivo study in pithed rats, pretreatment with yohimbine (alpha2-adrenergic component). Also on record: species or system rat (Sprague-Dawley). To be noted: yohimbine (1 mg/kg) pretreatment. An excerpt:
(§3) In vivo study in PITBED RATS
(§4) Male Sprague-Dawley rats (300-400 g) are anesthetized with ether. The trachea is canulated, the spinal cord is destroyed by means of a steel rod and the animal is immediately placed under artificial respiration. The vagal nerves are sectioned. The carotid arteries are ligated; a catheter is placed in one and is used to record blood pressure. A further three catheters are placed in the jugular veins and the veins of the penis and are used for injections. The animals'temperature is maintained at 36° C. The animal is pretreated by an injection of tertatolol ([…]). The animal is also pretreated 10 minutes later with prazosin ([…]) or yohimbine (1 mg/kg) when it is desired to determine the alpha1 --or alpha2 -adrenergic properties of the product. Ten minutes later, increasing cumulative doses of the product are injected every 20 seconds. Variations in blood pressure are detected using a Statham P23XL pressure cell and are recorded. The pressure values are expressed in mmHg. This experiment enables the concentration that increases the pressure by 20 mm Hg (C2.sbsb.0) to be calculated by non-linear regression according to the Michaelis and Menten model of the law of mass action, as described above. The maximum effect obtained is then converted to a percentage relative to the maximum effect produced by phenylephrine. The alpha1 - or alpha2 -adrenergic components of the product are assessed by means of the ratio of the C2.sbsb.0 values obtained in the presence of prazosin or yohimbine to the values obtained in the absence of these antagonists. In pithed rats, the products of the invention produce prazosin- and yohimbine-sensitive hypertension.

Assay [4] relates to pithed rats. Put plainly: In vivo study in pithed rats, blood pressure. As to conditions: Rattus norvegicus, iv, tertatolol pretreated, without prazosin or yohimbine, read-out: C20 Control (concentration that increases the pressure by 20 mm Hg). Details: species or system rat (Sprague-Dawley).
From the text: as §3, §4

In assay [5] the test system is carotid blood flow. Put plainly: In vivo study of carotid blood flow in anesthetized dogs. Also on record: species or system dog; dose or concentration left out as unconfirmed. To be noted: i.v., n-6. As for the experimental part: In vivo study of carotid blood flow in anesthetized dogs
Dogs (12-18kg) are anesthetized with pentobarbital (30mg/kg i.v.). Anesthesia is then maintained by a perfusion of 0.8 ml/h of 6% pentobarbital. The animals are placed under assisted respiration and their temperature is maintained at 37C (Harvard thermostated blanket). Blood pressure and heart rate are measured by means of a Millar probe in the fernoral artery or brachial artery, via a transducer and a Gould biotach. The blood flow in the carotid arteries is recorded by means of a Gould SP2202 electromagnetic flow meter.

Where a name gives a salt, the structure may show the parent alone.

Regarding `COc1cc(C)cc2c1CCC1(CNC=N1)C2` (centres unmarked) [Example 9, Spiro[(1,3-diaza-1-cyciopentene)-5,2'-(5'-methoxy-7'-methyl-1',2',3',4'-tetrahydronaphthalene) ]fumarate], the half-maximal effective concentration (EC50) was determined as 800 nM in assay [1] and 3900 nM in assay [2]. Besides, the Emax in assay [1] turned out to be 60%; in assay [2] it was 81%.
Taken in the same sequence, the figures for `Clc1cc(Cl)c2c(c1)CC1(CC2)CNC=N1` (centres unmarked) [Example 17, Spiro[(1,3-diaza-1-cyclopentene)-5,2'-(5',7'-dichloro-1',2',3',4'-tetrahydronaphthalene)]fumarate] were 24000 nM, 1900 nM, 10% and 44%.
Regarding `Cc1ccc2c(c1)CCC1(CNC=N1)C2` (centres unmarked) [Example 8, Spiro[(1,3-diaza-1-cyclopentene)-5,2'-(6'-methyl-1',2',3',4'-tetrahydronaphthalene)]fumarate], in assay [1], the EC50 was found to be 13000 nM and the Emax worked out at 12%. Moreover, in assay [2], it took 2100 nM to reach a half-maximal effect (EC50) and the Emax was 44%.
For the molecule `Cc1ccc2c(c1)CC1(CC2)CNC=N1` (centres unmarked) [Example 24, Spiro[(1,3-diaza-1-cyclopentene)-5,2'-(7'-methyl-1',2',3',4'-tetrahydronaphthalene)]fumarate], the “Ratio C20 treated/C20 control, Yohimbine” value in assay [3] came out at 1.5. Besides, in assay [1], the EC50 stood at 70000 nM and the Emax was found to be 8%. Moreover, the ED (20 mm Hg) in assay [4] was 0.03 mg/kg. In addition, in assay [2], a half-maximal response (EC50) required 160 nM and the Emax is 57%.
For the molecule `COc1ccc2c(c1OC)CCC1(CNC=N1)C2` (centres unmarked) [Example 7, Spiro[(1,3-diaza-1-cyclopentene)-5,2'-(5',6'-dimethoxy-1',2',3',4'-tetrahydronaphthalene)]fumarate], in assay [3], the “Ratio C20 treated/C20 control, Yohimbine” value amounted to 2.4. Further, the ED (20 mm Hg) in assay [4] stood at 0.137 mg/kg.
`Cc1ccc2c(c1)C[C@@]1(CC2)CNC=N1` [Example 46, (S)-Spiro[(1,3-diaza-1-cyclopentene)-5,2'-(7'-methyl-1',2',3',4'-tetrahydronaphthalene)]fumarate]: in assay [3], the “Ratio C20 treated/C20 control, Yohimbine” value is 3.4. In assay [1], the concentration giving a half-maximal response (EC50) is 15000 nM and the Emax is 36%. Moreover, the ED (20 mm Hg) in assay [4] stood at 0.0068 mg/kg. Moreover, the “fall in carotid blood flow” value in assay [5] amounted to 62±4%. For the same molecule, in assay [2], the EC50 worked out at 1860 nM and the Emax came to 48%.
As to `CC(C)Oc1ccc2c(c1)CCC1(CNC=N1)C2` (centres unmarked) [Example 5, Spiro[(1,3-diaza-1-cyclopentene)-5,2'-(6'-isopropyloxy-1',2',3',440-tetrahydronaphthalene)]fumarate], the “Ratio C20 treated/C20 control, Yohimbine” value in assay [3] was determined as 66. For the same molecule, the ED (20 mm Hg) in assay [4] is 0.068 mg/kg.
As for `C1=NC2(CCc3ccccc3C2)CN1` (centres unmarked) [Example 1, Spiro[(1,3-diaza-1-cyclopentene)-5,2'-(1',2',3',4'-tetrahydronaphthalene)]benzenesulfonate], the “Ratio C20 treated/C20 control, Yohimbine” value in assay [3] is recorded as 4.7. Besides, the EC50 was found to be 5900 nM in assay [1] and 1300 nM in assay [2]. Besides, the Emax was determined as 19% in assay [1] and 98% in assay [2]. Moreover, the ED (20 mm Hg) in assay [4] is 0.004 mg/kg.
As for `COc1cc2c(cc1O)CCC1(CNC=N1)C2` (centres unmarked) [Example 3, Spiro[(1,3-diaza-1-cyciopentene)-5,2'-(6'-hydroxy-7'-methoxy-1',2',3',4'-tetrahydronaphthalene)]fumarate], the “Ratio C20 treated/C20 control, Yohimbine” value in assay [3] worked out at 2.9. For the same molecule, in assay [4], the ED (20 mm Hg) came out at 0.0009 mg/kg.
For `C1=NC2(CN1)Cc1cccc3cccc(c13)C2` [Example 31, Spiro[(1,3-diaza-1-cyclopentene)-5,2'-(2,3'-dihydrophenalene)] 1/2 fumarate], in assay [1], the EC50 was found to be 500 nM and the Emax stood at 10%. Besides, in assay [2], a half-maximal effect (EC50) was put at 1600 nM and the Emax worked out at 44%.

In general, EC50 refers to the concentration giving half of the maximal effect.
